Reference: article PMC5107307 (ACS chemical biology, 2016)
Several values for one entry are separate records, joined by “and”; a condition that tells them apart may be missing. Identical values can stand only once. Non-standard residues stand in square brackets, D forms with d. Residues, ends and D or L forms follow the SMILES beside them.

Experiments:
[1] = prior pharmacokinetic/pharmacodynamic data; cited from earlier work
[2] = radiolabeled peptide; cited from earlier work
SGS-72 cells = assay: Effect on basal cAMP levels in SGS-72 cells; conditions: Fig. S1a
bovine trypsin = biological target: T1, bovine trypsin (Bos taurus, UniProt P00760); assay: in vitro; type: in vitro ADME
T1 sequence (P00760 24-246): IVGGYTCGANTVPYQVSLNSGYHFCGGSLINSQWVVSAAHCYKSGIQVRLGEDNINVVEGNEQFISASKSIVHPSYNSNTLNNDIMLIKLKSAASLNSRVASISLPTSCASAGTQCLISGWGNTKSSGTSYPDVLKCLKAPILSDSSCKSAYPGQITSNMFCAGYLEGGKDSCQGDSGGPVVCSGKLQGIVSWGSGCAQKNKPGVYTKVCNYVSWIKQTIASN

PTHR1 [3] = biological target: T2, PTHR1 (Homo sapiens, UniProt Q03431); assay: PTHR1 competition binding assay with 125I-PTH
T2 sequence (Q03431 27-593): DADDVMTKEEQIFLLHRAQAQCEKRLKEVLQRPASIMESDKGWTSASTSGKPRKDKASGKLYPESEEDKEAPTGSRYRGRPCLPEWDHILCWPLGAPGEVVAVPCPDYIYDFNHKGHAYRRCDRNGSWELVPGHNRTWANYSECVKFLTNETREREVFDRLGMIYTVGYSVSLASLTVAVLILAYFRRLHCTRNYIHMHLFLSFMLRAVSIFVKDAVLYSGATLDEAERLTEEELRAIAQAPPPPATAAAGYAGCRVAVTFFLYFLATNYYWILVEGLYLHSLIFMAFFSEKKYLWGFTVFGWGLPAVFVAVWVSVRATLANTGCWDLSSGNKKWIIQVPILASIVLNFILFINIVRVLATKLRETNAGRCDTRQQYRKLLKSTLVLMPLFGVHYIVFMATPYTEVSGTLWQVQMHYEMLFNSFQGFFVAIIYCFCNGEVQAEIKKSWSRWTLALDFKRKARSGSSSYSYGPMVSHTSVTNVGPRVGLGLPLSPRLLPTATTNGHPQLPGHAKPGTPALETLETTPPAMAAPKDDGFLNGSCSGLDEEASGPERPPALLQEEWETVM

proteinase K = proteinase K (Parengyodontium album, UniProt P06873); assay: in vitro; conditions: fungal, proteinase K (isolated protease)
Chain of proteinase K (P06873 106-384): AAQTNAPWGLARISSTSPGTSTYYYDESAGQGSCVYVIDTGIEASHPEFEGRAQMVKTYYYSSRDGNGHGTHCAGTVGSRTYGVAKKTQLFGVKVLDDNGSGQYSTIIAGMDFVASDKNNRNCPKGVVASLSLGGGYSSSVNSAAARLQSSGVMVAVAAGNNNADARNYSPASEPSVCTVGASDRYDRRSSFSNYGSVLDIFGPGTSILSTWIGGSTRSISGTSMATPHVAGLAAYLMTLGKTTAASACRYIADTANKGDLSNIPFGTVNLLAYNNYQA

VIP-receptor 1 (VIPR1) = biological target: T3, VIP-receptor 1 (VIPR1) (Homo sapiens, UniProt P32241); assay: Inhibition of VIP-induced cAMP production in SGS-72 cells
T3 sequence (P32241 31-457): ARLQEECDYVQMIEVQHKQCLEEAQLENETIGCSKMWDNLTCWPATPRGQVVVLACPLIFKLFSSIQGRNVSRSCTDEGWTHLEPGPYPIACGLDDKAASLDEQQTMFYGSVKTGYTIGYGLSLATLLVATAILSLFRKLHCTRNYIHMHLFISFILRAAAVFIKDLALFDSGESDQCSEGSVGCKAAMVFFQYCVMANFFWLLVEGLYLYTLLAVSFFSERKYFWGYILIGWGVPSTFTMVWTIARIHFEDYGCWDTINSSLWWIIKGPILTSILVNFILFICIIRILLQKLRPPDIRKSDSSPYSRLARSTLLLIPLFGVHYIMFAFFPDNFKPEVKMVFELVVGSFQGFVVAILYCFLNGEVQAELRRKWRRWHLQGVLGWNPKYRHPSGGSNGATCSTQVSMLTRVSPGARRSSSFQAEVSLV

female CD1 mice = assay: Antagonism of PTH; type: in vivo, mouse; conditions: antagonist 500 nmol/kg s.c. one hour after PTH(1–34) 10 nmol/kg
β2-adrenergic receptor = β2-adrenergic receptor (Homo sapiens, UniProt P07550); assay: Effect on isoproterenol-stimulated cAMP production in SGS-72 cells; conditions: Fig. S1b
Chain of β2-adrenergic receptor (P07550 whole entry): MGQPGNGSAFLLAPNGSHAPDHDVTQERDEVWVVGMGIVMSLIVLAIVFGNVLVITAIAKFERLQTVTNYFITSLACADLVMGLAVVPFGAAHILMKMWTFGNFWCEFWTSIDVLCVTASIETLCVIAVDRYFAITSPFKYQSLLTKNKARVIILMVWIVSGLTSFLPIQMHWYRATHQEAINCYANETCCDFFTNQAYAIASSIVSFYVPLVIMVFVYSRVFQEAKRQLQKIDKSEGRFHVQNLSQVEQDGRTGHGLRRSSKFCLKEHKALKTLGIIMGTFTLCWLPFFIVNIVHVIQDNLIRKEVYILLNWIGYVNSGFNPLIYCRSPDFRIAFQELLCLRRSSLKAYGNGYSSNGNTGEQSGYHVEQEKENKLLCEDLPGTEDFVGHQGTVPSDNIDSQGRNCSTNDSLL

PTHR1 [4] = biological target: T2, PTHR1; assay: Antagonism of agonist-stimulated cAMP generation in SGS-72 cells; type: cell-based
[5] = test system: constitutively active PTHR1 variants; conditions: cited from earlier work

Row | Structure (SMILES) | Half-life of clearance from the circulation [1] | Stability in plasma [2] | Effect on low basal cAMP levels in SGS-72 cells (SGS-72 cells) | Protease stability, half life, Trypsin (bovine trypsin) | IC50 (PTHR1 [3]) | half-life (proteinase K) | IC50 (VIP-receptor 1 (VIPR1)) | Effect on PTH(1–34)-induced blood Ca2+ response, antagonist given after agonist (female CD1 mice) | Effect on PTH(1–34)-induced blood Pi response, antagonist given after agonist (female CD1 mice) | Effect on stimulation of cAMP production caused by isoproterenol (β2-adrenergic receptor) | IC50 (PTHR1 [4]) | Reduction in M-PTH(1–11) inhibition potency of 2 in comparison to 1 (PTHR1 [4]; SGS-72 cells, cAMP response to M-PTH(1–11)) | half-life (bovine trypsin; bovine, isolated enzyme trypsin) | Inverse agonism of cAMP signaling at constitutively active PTHR1 variants [5]
1 | CC[C@H](C)[C@H](NC(=O)[C@H](CCC(=O)O)NC(=O)[C@H](CO)NC(=O)[C@@H](NC(=O)[C@@H](N)CO)C(C)C)C(=O)N[C@@H](CCC(N)=O)C(=O)N[C@@H](CC(C)C)C(=O)N[C@@H](CCSC)C(=O)N[C@@H](Cc1cnc[nH]1)C(=O)N[C@@H](CC(N)=O)C(=O)N[C@@H](CC(C)C)C(=O)NCC(=O)N[C@@H](CCCCN)C(=O)N[C@@H](Cc1cnc[nH]1)C(=O)N[C@@H](CC(C)C)C(=O)N[C@@H](CC(N)=O)C(=O)N[C@@H](CO)C(=O)N[C@@H](CCSC)C(=O)N[C@@H](CCC(=O)O)C(=O)N[C@@H](CCCN=C(N)N)C(=O)N[C@H](C(=O)N[C@@H](CCC(=O)O)C(=O)N[C@@H](Cc1c[nH]c2ccccc12)C(=O)N[C@@H](CC(C)C)C(=O)N[C@@H](CCCN=C(N)N)C(=O)N[C@@H](CCCCN)C(=O)N[C@@H](CCCCN)C(=O)N[C@@H](CC(C)C)C(=O)N[C@@H](CCC(N)=O)C(=O)N[C@@H](CC(=O)O)C(=O)N[C@H](C(=O)N[C@@H](Cc1cnc[nH]1)C(=O)N[C@@H](CC(N)=O)C(=O)N[C@@H](Cc1ccccc1)C(=O)O)C(C)C)C(C)C [PTH(1–34)] | 300 to 600 s | highly stable in plasma |  |  |  |  |  |  |  |  |  |  |  | 
2 | CSCC[C@@H](CC(=O)N[C@@H](CCC(=O)O)C(=O)N[C@@H](CCCNC(=N)N)C(=O)N[C@H](C(=O)N[C@@H](CCC(=O)O)CC(=O)N[C@@H](Cc1c[nH]c2ccccc12)C(=O)N[C@@H](CC(C)C)C(=O)N[C@@H](CCCNC(=N)N)C(=O)N[C@@H](CCCCN)CC(=O)N[C@@H](CCCCN)C(=O)N[C@@H](CC(C)C)C(=O)N[C@@H](CCC(N)=O)C(=O)N[C@@H](CC(=O)O)CC(=O)N[C@H](C(=O)N[C@@H](Cc1c[nH]cn1)C(=O)N[C@@H](CC(N)=O)C(=O)N[C@H](CC(N)=O)Cc1ccccc1)C(C)C)C(C)C)NC(=O)[C@H](CO)NC(=O)[C@H](CO)NC(=O)[C@H](CC(C)C)NC(=O)C[C@H](Cc1c[nH]c2ccccc12)NC(=O)[C@H](CCCCN)NC(=O)[C@@H](Cc1c[nH]c2ccccc12)NC(=O)[C@H](CC(C)C)NC(=O)[C@H](CC(N)=O)NC(=O)[C@H](Cc1c[nH]cn1)NC(=O)[C@H](CCSC)NC(=O)[C@@H](N)Cc1ccccc1 [Peptide 2] |  |  | neither α-peptide 1 nor α/β-peptide 2 substantially reduces | > 1200 s | 4.5 ± 1.2 nM | 150 s | > 1000 nM | only small effects | only small effects | neither α-peptide 1 nor α/β-peptide 2 substantially reduces | 6.15 nM and 10.6 nM and 2.07 nM | < 5 fold |  | 
3 | CSCC[C@H](NC(=O)[C@H](CO)NC(=O)[C@H](CO)NC(=O)[C@H](CC(C)C)NC(=O)[C@H](Cc1c[nH]cn1)NC(=O)[C@H](CCCCN)NC(=O)[C@@H](Cc1c[nH]c2ccccc12)NC(=O)[C@H](CC(C)C)NC(=O)[C@H](CC(N)=O)NC(=O)[C@H](Cc1c[nH]cn1)NC(=O)[C@H](CCSC)NC(=O)[C@@H](N)Cc1ccccc1)C(=O)N[C@@H](CCC(=O)O)C(=O)N[C@@H](CCCNC(=N)N)C(=O)N[C@H](C(=O)N[C@@H](CCC(=O)O)C(=O)N[C@@H](Cc1c[nH]c2ccccc12)C(=O)N[C@@H](CC(C)C)C(=O)N[C@@H](CCCNC(=N)N)C(=O)N[C@@H](CCCCN)C(=O)N[C@@H](CCCCN)C(=O)N[C@@H](CC(C)C)C(=O)N[C@@H](CCC(N)=O)C(=O)N[C@@H](CC(=O)O)C(=O)N[C@H](C(=O)N[C@@H](Cc1c[nH]cn1)C(=O)N[C@@H](CC(N)=O)C(=O)N[C@@H](Cc1ccccc1)C(N)=O)C(C)C)C(C)C [Peptide 1, bPTH(7–34) DTrp^12] (H-FMHNL[dW]KHLSSMERVEWLRKKLQDVHNF-NH2; N-terminus assumed) |  |  | neither α-peptide 1 nor α/β-peptide 2 substantially reduces | 42 s | 4.7 ± 1.2 nM | 7.8 s | > 1000 nM | only small effects | only small effects | neither α-peptide 1 nor α/β-peptide 2 substantially reduces |  |  | 42 s | acts as an inverse agonist
